# Assay results reported in patent US8629164B2, “Inhibitors of NF-κB” (Profectus Biosciences, Inc., priority 2009, dated 2014).
# Where a name gives a salt, the structure may show the parent alone.
# What was measured:
# [1] = molecular target: T1, RelB (Homo sapiens, UniProt Q01201); assay: TransAM NF-κB Family DNA Binding ELISA, RelB; conditions: for inhibition at 5 µM: read-out: RelB binding % inhibit. at 5 uM, at 5 uM; for IC50: RelB binding IC50 (uM), cells without % sign
# T1 sequence (Q01201 1-579): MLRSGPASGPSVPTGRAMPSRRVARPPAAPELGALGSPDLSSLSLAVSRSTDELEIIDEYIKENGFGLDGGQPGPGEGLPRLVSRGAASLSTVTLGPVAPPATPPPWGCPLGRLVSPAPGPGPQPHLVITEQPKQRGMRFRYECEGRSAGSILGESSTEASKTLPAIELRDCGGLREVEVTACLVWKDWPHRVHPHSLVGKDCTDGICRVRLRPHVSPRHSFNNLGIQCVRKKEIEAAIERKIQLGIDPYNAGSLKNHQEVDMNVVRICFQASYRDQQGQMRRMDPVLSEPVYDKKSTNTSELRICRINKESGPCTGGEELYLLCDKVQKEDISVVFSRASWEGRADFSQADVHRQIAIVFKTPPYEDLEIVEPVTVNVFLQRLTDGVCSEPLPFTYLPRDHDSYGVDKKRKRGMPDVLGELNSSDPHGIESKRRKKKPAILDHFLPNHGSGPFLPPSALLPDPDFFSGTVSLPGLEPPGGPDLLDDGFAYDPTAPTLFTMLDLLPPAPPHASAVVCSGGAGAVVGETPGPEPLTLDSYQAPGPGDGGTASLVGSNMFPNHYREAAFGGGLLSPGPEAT
# T1 sequence (Q00653 1-454 partner limits assumed): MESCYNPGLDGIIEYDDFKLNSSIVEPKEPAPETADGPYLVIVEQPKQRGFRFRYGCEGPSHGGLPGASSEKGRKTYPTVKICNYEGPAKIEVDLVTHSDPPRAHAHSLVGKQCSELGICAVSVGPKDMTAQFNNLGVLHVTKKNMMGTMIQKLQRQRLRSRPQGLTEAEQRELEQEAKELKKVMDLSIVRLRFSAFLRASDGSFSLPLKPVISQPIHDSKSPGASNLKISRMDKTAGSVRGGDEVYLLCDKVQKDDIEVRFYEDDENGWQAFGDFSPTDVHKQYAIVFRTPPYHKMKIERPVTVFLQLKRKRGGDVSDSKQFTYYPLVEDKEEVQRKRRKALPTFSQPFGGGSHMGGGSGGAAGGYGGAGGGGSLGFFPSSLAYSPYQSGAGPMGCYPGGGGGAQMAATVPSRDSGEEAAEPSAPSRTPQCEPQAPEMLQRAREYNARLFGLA
# Procedure: (§2) Treated samples were then transferred to 30 μL Complete Binding Buffer (with DTT) in microplate wells pre-coated with the NF-κB consensus oligonucleotide. […] The plate was incubated for 1 hour at room temperature with gentle shaking and then washed 3 times with 200 μL 1× Wash Buffer. NF-κB p65, p50, p52, RelB, or c-Rel subunits bound to the plate were detected with 100 μL of the primary antibody (diluted 1:1000 in 1× Antibody Buffer) specific for that subunit. The plate was incubated for 1 hour at room temperature and then washed 3 times with 200 μL 1× Wash Buffer. Next, 100 μL of a HRP conjugated goat anti-rabbit antibody (diluted 1:1,000 in 1× Antibody Buffer) was added to each well. The plate was incubated for 1 hour at room temperature and then washed 4 times with 200 μL 1× Wash Buffer. 100 μL of room temperature Developing Solution was added to each well. The reaction was allowed to develop for 2-10 minutes until a medium dark blue color developed (depending on the subunit activity in the lot of extract or lot of recombinant protein used) and then the reaction was stopped with 100 μL Stop Solution yielding a yellow color. Absorbance was recorded using a Becton-Dickinson DTX 880 Multimode Detector at 450 nm with a reference wavelength subtracted at 620 nm.
# [2] = test system: IL-6 release from RAW264.7 cells; assay: IL-6 release from LPS stimulated RAW264.7 cells; assay type: cell-based, mouse
# Procedure: Specifically, A and B show the effects of the compound of Example 1 on soluble PGE2 and Il-6 secretion from RAW264.7 cells stimulated by 1 μg/mL of LPS. The cells were treated with the indicated concentrations of the compound of Example 1 for 2 hours, and then LPS was added and incubation continued for 4 hours. […]
# [3] = molecular target: T2, p52 (Homo sapiens, UniProt Q00653); assay: TransAM NF-κB Family DNA Binding ELISA, p52; conditions: for IC50: p52 binding IC50 (uM), cells without % sign; for inhibition at 5 µM: read-out: p52 binding % inhibit. at 5 uM, at 5 uM
# T2 sequence (Q00653 1-454 limits assumed): T1 sequence (Q00653 1-454 partner limits assumed)
# [4] = molecular target: T3, c-Rel (Homo sapiens, UniProt Q04864); assay: TransAM NF-κB Family DNA Binding ELISA, c-Rel; conditions: for inhibition at 5 µM: read-out: c-Rel binding % inhibit. at 5 uM, at 5 uM; for IC50: c-Rel binding IC50 (uM), cells without % sign
# T3 sequence (Q04864 2-619 limits assumed): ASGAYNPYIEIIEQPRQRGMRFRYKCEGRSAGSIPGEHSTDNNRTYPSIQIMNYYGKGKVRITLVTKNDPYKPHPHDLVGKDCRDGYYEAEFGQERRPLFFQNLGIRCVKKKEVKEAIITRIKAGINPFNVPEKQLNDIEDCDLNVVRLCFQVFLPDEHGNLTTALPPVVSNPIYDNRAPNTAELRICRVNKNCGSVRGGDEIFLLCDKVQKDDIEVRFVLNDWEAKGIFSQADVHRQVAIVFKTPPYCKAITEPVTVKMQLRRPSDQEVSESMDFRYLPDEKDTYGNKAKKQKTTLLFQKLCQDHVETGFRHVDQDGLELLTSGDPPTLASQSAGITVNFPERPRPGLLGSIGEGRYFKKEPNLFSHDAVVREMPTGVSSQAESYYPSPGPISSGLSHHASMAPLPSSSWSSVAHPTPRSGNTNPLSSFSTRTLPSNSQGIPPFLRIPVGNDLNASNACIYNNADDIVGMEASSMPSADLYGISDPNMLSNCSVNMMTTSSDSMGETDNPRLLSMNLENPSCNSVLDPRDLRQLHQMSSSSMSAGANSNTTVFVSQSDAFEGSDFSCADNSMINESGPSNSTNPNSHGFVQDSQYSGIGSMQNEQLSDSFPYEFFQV
# [5] = test system: NF-κB; assay: 293-cell pTRH1-NF-κB-dscGFP reporter assay, TNF-α induced; assay type: cell-based; conditions: Homo sapiens, HEK293, HEK293 cells, NF-κB driven GFP expression; read-out: NF-kB/293/GFP EC50
# Procedure: (§1) Inhibition of NF-κB in cells by the compound of Example 1. Two reporter cell assays were used to determine the ability of the compound of Example 1 to inhibit NE-KB driven transcription. The first assay was a 293-cell based assay with a stably integrated pNF-κB-luc reporter plasmid containing 3 NF-κB promoter elements. The second assay was a 293-cell based assay with a stably integrated pTRH1-NF-κB-dscGFP reporter containing 4 NF-κB promoter elements. Cells were treated with 0, 0.2, 1, 10, 20 and 40 μM of the compound of Example 1 for 2 hours then were induced with 20 ng/ml TNF-α for 18 hours. Following the induction, luminescence or fluorescence was quantified using a Beckman-Coulter 2300 plate reader. […] These values represent the median value generated from three independent experiments±the standard error. As a control, 0.5% DMSO treated and untreated cells were compared to verify that the Example 1 carrier had no effect on the expression of luciferase or in the readout of the assay. There was a slight decrease in the output from the assay in the DMSO treated population although it was not statistically significant. As a result of the controls, the decrease in activity in the drug treated samples was compared to the DMSO control sample.
# [6] = test system: NF-κB; assay: 293-cell pNF-κB-luc reporter assay, TNF-α induced; assay type: cell-based; conditions: HEK293 cells, NF-κB driven luciferase expression, read-out: 293/NFkB-luc EC50
# Procedure: as §1
# [7] = molecular target: T4, p50 (Homo sapiens, UniProt P19838); assay: TransAM NF-κB Family DNA Binding ELISA, p50; conditions: for IC50: p50 binding IC50 (uM), cells without % sign; for inhibition at 5 µM: read-out: p50 binding % inhibit. at 5 uM
# T4 sequence (P19838 1-433 limits assumed): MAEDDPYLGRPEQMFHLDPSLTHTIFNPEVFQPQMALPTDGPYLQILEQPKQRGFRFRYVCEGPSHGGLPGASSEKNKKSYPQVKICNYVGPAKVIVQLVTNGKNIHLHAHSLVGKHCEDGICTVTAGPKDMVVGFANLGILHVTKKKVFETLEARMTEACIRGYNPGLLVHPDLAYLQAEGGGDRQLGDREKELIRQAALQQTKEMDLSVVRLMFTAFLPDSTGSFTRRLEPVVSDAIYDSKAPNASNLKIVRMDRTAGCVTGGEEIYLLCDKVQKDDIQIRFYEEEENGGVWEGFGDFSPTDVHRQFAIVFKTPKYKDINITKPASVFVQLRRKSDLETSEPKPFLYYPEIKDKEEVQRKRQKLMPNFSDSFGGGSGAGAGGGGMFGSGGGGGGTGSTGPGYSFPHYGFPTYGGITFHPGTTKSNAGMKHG
# Procedure: as §2
# [8] = molecular target: p65 (RelA) (Homo sapiens, UniProt Q04206); assay: TransAM NF-κB Family DNA Binding ELISA, p65; conditions: p65 binding IC50 (uM), binding to NF-κB sites
# Procedure: as §2
# [9] = Mus musculus, RAW264.7, RAW 264.7 cells
# p65 (RelA), sequence (Q04206 whole entry): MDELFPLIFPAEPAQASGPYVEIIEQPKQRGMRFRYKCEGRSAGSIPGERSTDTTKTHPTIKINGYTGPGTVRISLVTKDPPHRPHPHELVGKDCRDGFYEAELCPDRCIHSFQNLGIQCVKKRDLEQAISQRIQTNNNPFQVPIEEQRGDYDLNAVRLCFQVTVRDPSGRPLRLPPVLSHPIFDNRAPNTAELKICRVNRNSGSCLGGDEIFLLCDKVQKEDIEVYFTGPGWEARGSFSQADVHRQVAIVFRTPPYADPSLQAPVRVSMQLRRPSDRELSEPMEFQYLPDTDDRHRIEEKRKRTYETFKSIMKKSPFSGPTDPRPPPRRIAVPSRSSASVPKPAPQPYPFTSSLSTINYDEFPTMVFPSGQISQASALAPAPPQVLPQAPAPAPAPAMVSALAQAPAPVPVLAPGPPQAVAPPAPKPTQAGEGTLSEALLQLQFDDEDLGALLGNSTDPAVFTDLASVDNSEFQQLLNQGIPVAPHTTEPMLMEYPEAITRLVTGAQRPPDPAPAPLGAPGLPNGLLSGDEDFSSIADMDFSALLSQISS
SMILES,RelB binding % inhibit. at 5 uM [1] [%],EC50 ([2]; RAW 264.7 cells) [µM],IC50 [3] [µM],c-Rel binding % inhibit. at 5 uM [4] [%],EC50 [5] [µM],EC50 [6] [µM],IC50 [7] [µM],inhibition at 5 µM [1] [%],"EC50 [2, 9] [µM]",inhibition at 5 µM [4] [%],IC50 [8] [µM],inhibition at 5 µM [3] [%],inhibition at 5 µM [7] [%],"EC50 ([2]; RAW 264.7 cells, tosylate) [µM]",p52 binding % inhibit. at 5 uM ([3]; at 5 uM) [%],EC50 ([6]; tosylate) [µM],IC50 [1] [µM],IC50 [4] [µM],"EC50 ([2]; RAW 264.7 cells, trifluoroacetate) [µM]",EC50 ([6]; trifluoroacetate) [µM]
"O=C(NC1=CC(=O)C2OC2C1O)c1ncccc1O (racemic) [Example 3, (±)-3-hydroxy-N-(2-hydroxy-5-oxo-7-oxabicyclo[4.1.0]hept-3-en-3-yl)picolinamide]",0,1.4,301,15,3.4,15,> 636,–,–,–,–,–,–,–,–,–,–,–,–,–
"Cc1ccc(S(=O)(=O)O)cc1.O=C(NC1=CC(=O)C2OC2C1O)c1ncccc1O (racemic) [Example 14, (±)-3-hydroxy-N-(2-hydroxy-5-oxo-7-oxabicyclo[4.1.0]hept-3-en-3-yl)picolinamide tosylate]",9,–,–,1,–,–,–,–,–,–,–,–,–,3.3,6,23,–,–,–,–
"COc1ncccc1C(=O)NC1=CC(=O)C2OC2C1O (racemic) [Example 16, (±)-N-(2-hydroxy-5-oxo-7-oxa-bicyclo[4.1.0]hept-3-en-3-yl)-2-methoxy-nicotinamide]",–,–,3.7,–,1.2,7.1,20,–,0.64,–,0.88,–,–,–,–,–,1.7,0.8,–,–
"COc1ncccc1C(=O)NC1=CC(=O)C2OC2C1O (racemic) [Example 21, (±)-N-(2-hydroxy-5-oxo-7-oxa-bicyclo[4.1.0]hept-3-en-3-yl)-2-methoxy-nicotinamide trifluoroacetate]",–,–,22,–,–,–,22,–,–,–,0.55,–,–,–,–,–,1.5,1.1,0.38,5.8

# The remaining compounds from weak to strong by EC50 [5], led by results:
RelB binding % inhibit. at 5 uM [1] [%],EC50 ([2]; RAW 264.7 cells) [µM],IC50 [3] [µM],c-Rel binding % inhibit. at 5 uM [4] [%],EC50 [5] [µM],EC50 [6] [µM],IC50 [7] [µM],inhibition at 5 µM [1] [%],"EC50 [2, 9] [µM]",inhibition at 5 µM [4] [%],IC50 [8] [µM],inhibition at 5 µM [3] [%],inhibition at 5 µM [7] [%],"EC50 ([2]; RAW 264.7 cells, tosylate) [µM]",p52 binding % inhibit. at 5 uM ([3]; at 5 uM) [%],EC50 ([6]; tosylate) [µM],IC50 [1] [µM],IC50 [4] [µM],"EC50 ([2]; RAW 264.7 cells, trifluoroacetate) [µM]",EC50 ([6]; trifluoroacetate) [µM],SMILES
–,–,365,–,40,> 51,118,21,> 51,23,5,–,–,–,–,–,–,–,–,–,"O=C(NC1=CC(=O)C2OC2C1O)c1cnccc1O (racemic) [Example 4, (±)-4-hydroxy-N-(2-hydroxy-5-oxo-7-oxa-bicyclo[4.1.0]hept-3-en-3-yl)-nicotinamide]"
–,1.4,–,–,7.7,9.6,–,29,–,40,5.8,18,1,–,–,–,–,–,–,–,"COc1cccnc1C(=O)NC1=CC(=O)C2OC2C1O (racemic) [Example 20, (±)-3-methoxy-pyridine-2-carboxylic acid (2-hydroxy-5-oxo-7-oxa-bicyclo[4.1.0]hept-3-en-3-yl)-amide]"
–,–,–,–,5.8,15,–,18,7.7,40,4.6,9,4,–,–,–,–,–,–,–,"O=C(NC1=CC(=O)C2OC2C1O)c1cnc(N2CCCCC2)nc1O (racemic) [Example 11, (±)-4-hydroxy-2-piperidin-1-yl-pyrimidine-5-carboxylic acid (2-hydroxy-5-oxo-7-oxa-bicyclo[4.1.0]hept-3-en-3-yl)-amide]"
–,–,–,–,4.9,11,–,0,1,6,488,0,0,–,–,–,–,–,–,–,"O=C(NC1=CC(=O)C2OC2C1O)c1nc2ccccc2cc1O (racemic) [Example 15, (±)-3-hydroxy-quinoline-2-carboxylic acid-(2-hydroxy-5-oxo-7-oxa-bicyclo[4.1.0]hept-3-en-3-yl)-amide]"
–,–,4.7,–,0.84,4.1,1.2,–,0.13,–,1.1,–,–,–,–,–,0.65,0.49,–,–,"COc1nc2ccccc2cc1C(=O)NC1=CC(=O)C2OC2C1O (racemic) [Example 25, (±)-2-methoxy-quinoline-3-carboxylic acid (2-hydroxy-5-oxo-7-oxa-bicyclo[4.1.0]hept-3-en-3-yl)-amide]"
